According to patent US4006238A, “Use of 2-(hydroxyalkyl)-1H-benz[de]isoquinoline-1,3(2H)-diones as anti-allergy agents” (E. R. Squibb & Sons, Inc., priority 1975, dated 1977):

System: reaginic antibody induced passive cutaneous anaphylaxis (PCA) reaction
Test: reaginic antibody induced passive cutaneous anaphylaxis (PCA) reaction in rats
Type: in vivo
Settings: male rat; anti-Egg Albumin intradermal; two doses of test compound (75 mg./kg.) intraperitoneally, 90 and 10 minutes prior to intravenous Egg Albumin/Evans Blue challenge; scored thirty minutes after
Method: The compounds of formula I are anti-allergics which inhibit the effects of certain antigen-antibody reactions and in particular inhibit the release of mediators such as histamine. The anti-allergy activity of these compounds is determined by the reaginic antibody induced passive cutaneous anaphylaxis (PCA) reaction in rats. (See Bach, Immediate Hypersensitivity: Laboratory Models and Experimental Findings, Ann. Rep. Med. Chem., 7: 238-248 (1972), for a discussion of the predictability of clinical efficacy of compounds active in the PCA).
The experimental procedure employed is as follows. A male rat is given an intradermal injection on one flank of 0.05 ml. of antibody (reaginic) (anti-Egg Albumin). 24 hours later two doses of test compound (75 mg./kg.) are administered intraperitoneally, one dose ninety minutes and the other ten minutes prior to a 0.5 ml. intravenous injection of an antigen challenge (equal portions of Egg Albumin 4 mg./ml. and 1% Evans Blue Dye). […] A score is obtained according to the formula
Total score = (diameter) × (intensity)
wherein the intensity of the spot is rated on a scale of 1 to 3 as follows
and the diameter is determined by averaging in millimeters two measured diameters of the reaction.
The percent inhibition is calculated by comparing the scores obtained in both compound and non-compound treated animals according to a pre-determined standard curve relationship between score and the quantity of antibody used to elicit the reaction.

Row | SMILES | Percent Inhibition [%]
1 | O=C1c2cccc3cccc(c23)C(=O)N1CCO [2-(2-Hydroxyethyl)-1H-benz[de]isoquinoline-1,3(2H)-dione] | 36
2 | O=C1c2cccc3cccc(c23)C(=O)N1CCCO [2-(3-Hydroxypropyl)-1H-benz[de]isoquinoline-1,3(2H)-dione] | 52
3 | O=C1c2cccc3cccc(c23)C(=O)N1CCCCO [2-(4-Hydroxybutyl)-1H-benz[de]isoquinoline-1,3(2H)-dione] | 53
4 | O=C1c2cccc3cccc(c23)C(=O)N1CCCCCO [2-(5-Hydroxypentyl)-1H-benz[de]isoquinoline-1,3(2H)-dione] | 8
5 | O=C1c2cccc3cccc(c23)C(=O)N1CO [2-(Hydroxymethyl)-1H-benz[de]isoquinoline-1,3(2H)-dione] | 50
